Literature values in US20180147234A1, “COMPOSITIONS AND METHODS FOR TREATMENT OF FIBROMYALGIA” (Luitpold Pharmaceuticals, Inc., priority 2015, published 2018).

Conditions: in vivo

Blood half-life: 10 to 14 h
Substance: polyglucose sorbitol carboxymethyl ether-coated non-stoichiometric magnetite [ferumoxytol]
